The values below come from patent EP0385712B1, “A peptide for use in the manufacture of a composition for prevention or treatment of a condition susceptible to treatment with a platelet aggregation inhibition agent” (ASAHI KASEI KOGYO KABUSHIKI KAISHA, priority 1989, dated 1994).

The test system of this data set is rat, Wister strain. Description: Acute toxicity in rat, intravenous. The data set is classed as in vivo. Conditions: body weight 80 - 90 g, 80 µg/kg intravenously in the tail, solution in 0.1 M aqueous sodium acetate containing 0.1 % bovine serum albumin. Here is the method:
A solution of each of the following compounds in 0.1 M aqueous sodium acetate containing 0.1 % bovine serum albumin is administered into a rat, Wister strain, body weight 80 - 90 g, 80 µg/kg, intraveneously in the tail.

Positions of bridges follow the written chain, without caps; N, C: chain ends. Residues, ends and D or L forms follow the SMILES beside them.

For the compound `CC(C)C[C@H](NC(=O)[C@H](CCCNC(=N)N)NC(=O)[C@H](Cc1c[nH]cn1)NC(=O)[C@@H](NC(=O)[C@@H](NC(=O)[C@@H]1CSSC[C@H](NC(=O)[C@H](C)N)C(=O)N[C@@H](CC(=O)O)C(=O)N[C@@H]([C@@H](C)O)C(=O)N[C@@H](C)C(=O)N[C@@H]([C@@H](C)O)C(=O)N1)C(C)C)[C@@H](C)O)C(=O)N[C@@H](C)C(=O)N[C@@H](CC(=O)O)C(=O)N[C@@H](CC(C)C)C(=O)N[C@@H](CC(C)C)C(=O)N[C@@H](CO)C(=O)N[C@@H](CCCNC(=N)N)C(=O)N[C@@H](CO)C(=O)NCC(=O)NCC(=O)N[C@H](C(=O)N[C@H](C(=O)N[C@@H](CCCCN)C(=O)N[C@@H](CC(N)=O)C(=O)N[C@@H](CC(N)=O)C(=O)N[C@@H](Cc1ccccc1)C(=O)N[C@H](C(=O)N1CCC[C@H]1C(=O)N[C@H](C(=O)N[C@@H](CC(N)=O)C(=O)N[C@H](C(=O)NCC(=O)N[C@@H](CO)C(=O)N[C@@H](CCCCN)C(=O)N[C@@H](C)C(=O)N[C@@H](Cc1ccccc1)C(N)=O)C(C)C)[C@@H](C)O)C(C)C)C(C)C)C(C)C` [[Asp¹⁴ ] -h -α-CGRP] (H-ACDTATCVTHRLADLLSRSGGVVKNNFVPTNVGSKAF-NH2; disulfide 2-7), the “Acute toxicity (deaths)” value is given as “No deaths were observed”.

Regarding `CC(C)C[C@H](NC(=O)[C@H](CCCNC(=N)N)NC(=O)[C@H](Cc1c[nH]cn1)NC(=O)[C@@H](NC(=O)[C@@H](NC(=O)[C@@H]1CSSC[C@H](NC(=O)[C@H](C)N)C(=O)N[C@@H](CC(N)=O)C(=O)N[C@@H]([C@@H](C)O)C(=O)N[C@@H](C)C(=O)N[C@@H]([C@@H](C)O)C(=O)N1)C(C)C)[C@@H](C)O)C(=O)N[C@@H](C)C(=O)N[C@@H](CCC(=O)O)C(=O)N[C@@H](Cc1ccccc1)C(=O)N[C@@H](CC(C)C)C(=O)N[C@@H](CO)C(=O)N[C@@H](CCCNC(=N)N)C(=O)N[C@@H](CO)C(=O)NCC(=O)NCC(=O)N[C@H](C(=O)N[C@H](C(=O)N[C@@H](CCCCN)C(=O)N[C@@H](CC(N)=O)C(=O)N[C@@H](CC(N)=O)C(=O)N[C@@H](Cc1ccccc1)C(=O)N[C@H](C(=O)N1CCC[C@H]1C(=O)N[C@H](C(=O)N[C@@H](CC(N)=O)C(=O)N[C@H](C(=O)NCC(=O)N[C@@H](CO)C(=O)N[C@@H](CCCCN)C(=O)N[C@@H](C)C(=O)N[C@@H](Cc1ccccc1)C(N)=O)C(C)C)[C@@H](C)O)C(C)C)C(C)C)C(C)C` [[Asn³, Glu¹⁴, Phe¹⁵] -h -α-CGRP] (H-ACNTATCVTHRLAEFLSRSGGVVKNNFVPTNVGSKAF-NH2; disulfide 2-7), the “Acute toxicity (deaths)” value is “No deaths were observed”.

With desalanyl-deamino-h-α-CGRP, the “Acute toxicity (deaths)” value is listed as “No deaths were observed”.

With desalanyl- [Asu^2,⁷] - c-CGRP, the “Acute toxicity (deaths)” value is “No deaths were observed”.

Take desalanyl-deamino-c-CGRP: the “Acute toxicity (deaths)” value was “No deaths were observed”.

Take “desalanyl-deamino- [Asn³, Asp¹⁴, Gly²³] -h -α-CGRP”: the “Acute toxicity (deaths)” value is on record as “No deaths were observed”.

In the case of p - CGRP, the “Acute toxicity (deaths)” value is reported as “No deaths were observed”.

Regarding `CC(C)C[C@H](NC(=O)[C@H](CCCNC(=N)N)NC(=O)[C@H](Cc1c[nH]cn1)NC(=O)[C@@H](NC(=O)[C@@H](NC(=O)[C@@H]1CSSC[C@H](NC(=O)[C@H](C)N)C(=O)N[C@@H](CC(=O)O)C(=O)N[C@@H]([C@@H](C)O)C(=O)N[C@@H](C)C(=O)N[C@@H]([C@@H](C)O)C(=O)N1)C(C)C)[C@@H](C)O)C(=O)N[C@@H](C)C(=O)N[C@@H](CCC(=O)O)C(=O)N[C@@H](CC(C)C)C(=O)N[C@@H](CC(C)C)C(=O)N[C@@H](CO)C(=O)N[C@@H](CCCNC(=N)N)C(=O)N[C@@H](CO)C(=O)NCC(=O)NCC(=O)N[C@H](C(=O)N[C@H](C(=O)N[C@@H](CCCCN)C(=O)N[C@@H](CC(N)=O)C(=O)N[C@@H](CC(N)=O)C(=O)N[C@@H](Cc1ccccc1)C(=O)N[C@H](C(=O)N1CCC[C@H]1C(=O)N[C@H](C(=O)N[C@@H](CC(N)=O)C(=O)N[C@H](C(=O)NCC(=O)N[C@@H](CO)C(=O)N[C@@H](CCCCN)C(=O)N[C@@H](C)C(=O)N[C@@H](Cc1ccccc1)C(N)=O)C(C)C)[C@@H](C)O)C(C)C)C(C)C)C(C)C` [[Glu¹⁴ ] -h -α-CGRP] (H-ACDTATCVTHRLAELLSRSGGVVKNNFVPTNVGSKAF-NH2; disulfide 2-7), the “Acute toxicity (deaths)” value is reported as “No deaths were observed”.

For desalanyl- [Asu^2,7] -h - α-CGRP, the “Acute toxicity (deaths)” value is reported as “No deaths were observed”.

As to `CC(C)C[C@H](NC(=O)[C@H](CCCNC(=N)N)NC(=O)[C@H](Cc1c[nH]cn1)NC(=O)[C@@H](NC(=O)[C@@H](NC(=O)[C@@H]1CSSC[C@H](NC(=O)[C@H](C)N)C(=O)N[C@@H](CC(N)=O)C(=O)N[C@@H]([C@@H](C)O)C(=O)N[C@@H](C)C(=O)N[C@@H]([C@@H](C)O)C(=O)N1)C(C)C)[C@@H](C)O)C(=O)N[C@@H](C)C(=O)N[C@@H](CC(=O)O)C(=O)N[C@@H](CC(C)C)C(=O)N[C@@H](CC(C)C)C(=O)N[C@@H](CO)C(=O)N[C@@H](CCCNC(=N)N)C(=O)N[C@@H](CO)C(=O)NCC(=O)NCC(=O)N[C@H](C(=O)NCC(=O)N[C@@H](CCCCN)C(=O)N[C@@H](CC(N)=O)C(=O)N[C@@H](CC(N)=O)C(=O)N[C@@H](Cc1ccccc1)C(=O)N[C@H](C(=O)N1CCC[C@H]1C(=O)N[C@H](C(=O)N[C@@H](CC(N)=O)C(=O)N[C@H](C(=O)NCC(=O)N[C@@H](CO)C(=O)N[C@@H](CCCCN)C(=O)N[C@@H](C)C(=O)N[C@@H](Cc1ccccc1)C(N)=O)C(C)C)[C@@H](C)O)C(C)C)C(C)C` [[Asn³, Asp¹⁴, Gly²³] -h -α-CGRP] (H-ACNTATCVTHRLADLLSRSGGVGKNNFVPTNVGSKAF-NH2; disulfide 2-7), the “Acute toxicity (deaths)” value is given as “No deaths were observed”.

c - CGRP: the “Acute toxicity (deaths)” value is recorded as “No deaths were observed”.

Take desalanyl- [Asu^2,7] -h -β-CGRP: the “Acute toxicity (deaths)” value is reported as “No deaths were observed”.

As to h - β- CGRP, the “Acute toxicity (deaths)” value is listed as “No deaths were observed”.

As for `CC(C)C[C@H](NC(=O)[C@H](CCCNC(=N)N)NC(=O)[C@H](Cc1c[nH]cn1)NC(=O)[C@@H](NC(=O)[C@@H](NC(=O)[C@@H]1CSSC[C@H](NC(=O)[C@H](C)N)C(=O)N[C@@H](CC(N)=O)C(=O)N[C@@H]([C@@H](C)O)C(=O)N[C@@H](C)C(=O)N[C@@H]([C@@H](C)O)C(=O)N1)C(C)C)[C@@H](C)O)C(=O)N[C@@H](C)C(=O)N[C@@H](CC(=O)O)C(=O)N[C@@H](Cc1ccccc1)C(=O)N[C@@H](CC(C)C)C(=O)N[C@@H](CO)C(=O)N[C@@H](CCCNC(=N)N)C(=O)N[C@@H](CO)C(=O)NCC(=O)NCC(=O)N[C@H](C(=O)N[C@H](C(=O)N[C@@H](CCCCN)C(=O)N[C@@H](CC(N)=O)C(=O)N[C@@H](CC(N)=O)C(=O)N[C@@H](Cc1ccccc1)C(=O)N[C@H](C(=O)N1CCC[C@H]1C(=O)N[C@H](C(=O)N[C@@H](CC(N)=O)C(=O)N[C@H](C(=O)NCC(=O)N[C@@H](CO)C(=O)N[C@@H](CCCCN)C(=O)N[C@@H](C)C(=O)N[C@@H](Cc1ccccc1)C(N)=O)C(C)C)[C@@H](C)O)C(C)C)C(C)C)C(C)C` [[Asn³, Asp¹⁴, Phe¹⁵] -h -α-CGRP] (H-ACNTATCVTHRLADFLSRSGGVVKNNFVPTNVGSKAF-NH2; disulfide 2-7), the “Acute toxicity (deaths)” value is recorded as “No deaths were observed”.

In the case of r - β- CGRP, the “Acute toxicity (deaths)” value was “No deaths were observed”.

For the compound `CC(C)C[C@H](NC(=O)[C@H](CCCNC(=N)N)NC(=O)[C@H](Cc1c[nH]cn1)NC(=O)[C@@H](NC(=O)[C@@H](NC(=O)[C@@H]1CSSC[C@H](NC(=O)[C@H](C)N)C(=O)N[C@@H](CC(N)=O)C(=O)N[C@@H]([C@@H](C)O)C(=O)N[C@@H](C)C(=O)N[C@@H]([C@@H](C)O)C(=O)N1)C(C)C)[C@@H](C)O)C(=O)N[C@@H](C)C(=O)NCC(=O)N[C@@H](Cc1ccccc1)C(=O)N[C@@H](CC(C)C)C(=O)N[C@@H](CO)C(=O)N[C@@H](CCCNC(=N)N)C(=O)N[C@@H](CO)C(=O)NCC(=O)NCC(=O)N[C@H](C(=O)NCC(=O)N[C@@H](CCCCN)C(=O)N[C@@H](CC(N)=O)C(=O)N[C@@H](CC(N)=O)C(=O)N[C@@H](Cc1ccccc1)C(=O)N[C@H](C(=O)N1CCC[C@H]1C(=O)N[C@H](C(=O)N[C@@H](CC(N)=O)C(=O)N[C@H](C(=O)NCC(=O)N[C@@H](CO)C(=O)N[C@@H](CCCCN)C(=O)N[C@@H](C)C(=O)N[C@@H](Cc1ccccc1)C(N)=O)C(C)C)[C@@H](C)O)C(C)C)C(C)C` [[Asn³, Phe¹⁵, Gly²³] -h -α-CGRP] (H-ACNTATCVTHRLAGFLSRSGGVGKNNFVPTNVGSKAF-NH2; disulfide 2-7), the “Acute toxicity (deaths)” value is “No deaths were observed”.

Consider “desalanyl-deamino- [Asn³, Phe¹⁵, Gly²³] -h -α-CGRP”, for which the “Acute toxicity (deaths)” value was “No deaths were observed”.

Regarding r - α - CGRP, the “Acute toxicity (deaths)” value is reported as “No deaths were observed”.

As for “desalanyl-deamino- [Asn³, Glu¹⁴, Gly²³] -h -α-CGRP”, the “Acute toxicity (deaths)” value is on record as “No deaths were observed”.
